Reference: the NIST ThermoML archive (doi:10.1016/j.fluid.2014.01.019)

Assay: xn = mol fraction of the nth substance listed
Conditions: 101 kPa, Liquid; for mass density: Vibrating tube method; for speed of sound: Frequency=2 MHz, Linear variable-path acoustic interferometer

Cc1ccccc1Cl [2-chlorotoluene] + OCc1ccccc1
Conditions	mass density, 298.15 K [kg/m3]	mass density, 303.15 K [kg/m3]	mass density, 308.15 K [kg/m3]	mass density, 313.15 K [kg/m3]	speed of sound, 303.15 K [m/s]	speed of sound, 313.15 K [m/s]
x2 = 0.0507	1074.83	1071.16	1066.48	1061.94	1301	1296
x2 = 0.1134	1072.8	1068.97	1064.3	1059.77	1320	1308
x2 = 0.1507	1071.57	1067.66	1062.99	1058.47	1332	1316
x2 = 0.1894	1070.31	1066.29	1061.66	1057.14	1344	1325
x2 = 0.2477	1068.37	1064.25	1059.65	1055.13	1360	1336
x2 = 0.3059	1066.42	1062.2	1057.64	1053.16	1377	1348
x2 = 0.3686	1064.3	1060	1055.47	1051.04	1394	1360
x2 = 0.4535	1061.39	1057.02	1052.56	1048.18	1415	1377
x2 = 0.5385	1058.41	1054.04	1049.63	1045.3	1436	1393
x2 = 0.6309	1055.16	1050.78	1046.46	1042.2	1456	1411
x2 = 0.7003	1052.67	1048.32	1044.08	1039.89	1469	1426
x2 = 0.7723	1050.04	1045.77	1041.59	1037.48	1482	1442
x2 = 0.8537	1047.01	1042.88	1038.81	1034.72	1496	1458
x2 = 0.8902	1045.64	1041.6	1037.56	1033.55	1499	1466
x2 = 0.9547	1043.18	1039.28	1035.35	1031.4	1508	1478

Cc1ccccc1[N+](=O)[O-] [2-nitrotoluene] + OCc1ccccc1
Conditions	mass density, 298.15 K [kg/m3]	mass density, 303.15 K [kg/m3]	mass density, 308.15 K [kg/m3]	mass density, 313.15 K [kg/m3]	speed of sound, 303.15 K [m/s]	speed of sound, 313.15 K [m/s]
x2 = 0.0534	1153.93	1148.05	1144.09	1139.21	1444	1406
x2 = 0.1227	1146.45	1140.66	1136.63	1131.74	1449	1411
x2 = 0.1912	1138.96	1133.26	1129.16	1124.32	1454	1418
x2 = 0.2352	1134.11	1128.45	1124.35	1119.53	1458	1421
x2 = 0.2997	1126.89	1121.35	1117.19	1112.42	1462	1427
x2 = 0.3713	1118.76	1113.36	1109.17	1104.47	1467	1432
x2 = 0.4567	1108.91	1103.69	1099.48	1094.85	1474	1440
x2 = 0.5416	1098.93	1093.89	1089.68	1085.15	1480	1447
x2 = 0.6038	1091.49	1086.61	1082.42	1077.95	1485	1452
x2 = 0.6536	1085.47	1080.69	1076.51	1072.12	1489	1457
x2 = 0.7025	1079.47	1074.82	1070.68	1066.34	1493	1461
x2 = 0.743	1074.47	1069.91	1065.79	1061.49	1495	1464
x2 = 0.8128	1065.71	1061.34	1057.26	1053.06	1501	1471
x2 = 0.8551	1060.33	1056.07	1052.04	1047.91	1505	1474
x2 = 0.9351	1050	1045.96	1042.02	1038.01	1510	1481
